Laboratory results taken from the supplement of paper PMC12490022.
± gives the uncertainty stated by the source.

System: ozone
Assay: apparent second-order rate constant for reaction with ozone (kapp,O3) (M-1 s-1); higher = faster oxidation by ozone
Settings: pH 7; temperature: 22 C; OH radical scavenger: tBuOH 80 mM; phosphate 4 mM
Procedure: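 Apparent second-order rate constants for reaction with ozone at pH 7 were determined by multicompound competition kinetics. Mixtures of targets and competitors (10 ug/L each) were ozonated in 4 mM phosphate buffer, pH 7, with 80 mM tBuOH as OH-radical scavenger, at 22 ± 1 °C. Peak-area abatement was measured by HPLC-HRMS/MS and k was derived from ln-ln slopes against competitors with known k (R2 > 0.9, >= 10 points, slope 0.1-10). Experiments were run in triplicate on 3 days; the value is the mean over valid competitors ± SD.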

Row | apparent second-order rate constant | Compound
1 | 392 ± 21 | O=C1Nc2c(CO)ccnc2N(C2CC2)c2ncccc21 [12-Hydroxynevirapine]
2 | 8.8e+06 ± 600000 | Nc1nc(NC2CC2)c2ncn(C3C=CC(CO)C3)c2n1 (stereo not drawn) [Abacavir]
3 | 1.04e+06 ± 86000 | COc1ccc2c(c1)c(CC(=O)OCC(=O)O)c(C)n2C(=O)c1ccc(Cl)cc1 [Acemethacin]
4 | 22000 ± 5000 | COCCCOc1cc(CC(CC(N)C(O)CC(C(=O)NCC(C)(C)C(N)=O)C(C)C)C(C)C)ccc1OC (stereo not drawn) [Aliskiren]
5 | 3.9 ± 0.4 | O=c1ncnc2[nH][nH]cc1-2 [Allopurinol]
6 | 1190 ± 100 | CC[N+]1([O-])CCCC1CNC(=O)c1cc(S(=O)(=O)CC)c(N)cc1OC (stereo not drawn) [Amisulpride-N-oxide]
7 | 18000 ± 1600 | CCN1CCCC1CNC(=O)c1cc(S(=O)(=O)CC)c(N)cc1OC (stereo not drawn) [Amisulpride]
8 | 9.9e+07 ± 2.2e+07 | CCOC(=O)C1=C(COCCN)NC(C)=C(C(=O)OC)C1c1ccccc1Cl (stereo not drawn) [Amlodipine]
9 | 9e+06 ± 1.9e+06 | CC1(C)SC(CNC(=O)C(N)c2ccc(O)cc2)NC1C(=O)O (stereo not drawn) [Amoxicillin impurity E]
10 | 3.75e+06 ± 540000 | O=C1C=CC(=C2NC=CNC2=O)C=C1 [Amoxicillin impurity F]
11 | 2.2e+06 ± 190000 | CC1(C)SC2C(NC(=O)C(N)c3ccc(O)cc3)C(=O)N2C1C(=O)O (stereo not drawn) [Amoxicillin]
12 | 845 ± 57 | CC(C)NCC(O)COc1ccc(CC(=O)O)cc1 (stereo not drawn) [Atenolol acid]
13 | 1580 ± 72 | CC(C)NCC(O)COc1ccc(CC(N)=O)cc1 (stereo not drawn) [Atenolol]
14 | 1.5e+08 ± 3e+07 | CC(C)c1c(C(=O)Nc2ccccc2)c(-c2ccccc2)c(-c2ccc(F)cc2)n1CCC(O)CC(O)CC(=O)O (stereo not drawn) [Atorvastatin]
15 | 1150 ± 74 | CC[C@H]1OC(=O)[C@H](C)[C@@H](O[C@H]2C[C@@](C)(OC)[C@@H](O)[C@H](C)O2)[C@H](C)[C@@H](O[C@@H]2O[C@H](C)C[C@H]([N+](C)(C)[O-])[C@H]2O)[C@](C)(O)C[C@@H](C)CN(C)[C@H](C)[C@@H](O)[C@]1(C)O [Azithromycin-N-oxide]
16 | 72000 ± 17000 | CCC1OC(=O)C(C)C(OC2CC(C)(OC)C(O)C(C)O2)C(C)C(OC2OC(C)CC(N(C)C)C2O)C(C)(O)CC(C)CN(C)C(C)C(O)C1(C)O (stereo not drawn) [Azithromycin]
17 | < 0.401 | O=C(c1ccccc1)c1ccccc1 [Benzophenone]
18 | 24.4 ± 1.3 | CC(=O)OCC(=O)[C@@]1(O)[C@@H](C)C[C@H]2[C@@H]3CCC4=CC(=O)C=C[C@]4(C)[C@@]3(F)[C@@H](O)C[C@@]21C [Betamethasone-21-acetate]
19 | 35.8 ± 1.8 | CC1CC2C3CCC4=CC(=O)C=CC4(C)C3(F)C(O)CC2(C)C1(O)C(=O)CO (stereo not drawn) [Betamethasone]

Row | apparent second-order rate constant | Compound
20 | 2.6 ± 0.3 | CC(=O)Oc1ccc(C(c2ccc(OC(C)=O)cc2)c2ccccn2)cc1 [Bisacodyl]
21 | < 0.401 | NC(=O)N1c2ccccc2C2OC2c2ccccc21 (stereo not drawn) [Carbamazepine-10,11-epoxide]
22 | 11.8 ± 1.3 | CC(Cc1ccc(C(C)C(=O)O)cc1)C(=O)O (stereo not drawn) [Carboxyibuprofen]
23 | 5670 ± 460 | O=C(O)COCC[N+]1([O-])CCN(C(c2ccccc2)c2ccc(Cl)cc2)CC1 (stereo not drawn) [Cetirizine-N-oxide]
24 | 359000 ± 31000 | O=C(O)COCCN1CCN(C(c2ccccc2)c2ccc(Cl)cc2)CC1 (stereo not drawn) [Cetirizine]
25 | 1.57 ± 0.17 | NS(=O)(=O)c1cc2c(cc1Cl)NC=NS2(=O)=O [Chlorothiazide]
26 | 12600 ± 1100 | CN(C)CCCC1(c2ccc(F)cc2)OCc2cc(C#N)ccc21 (stereo not drawn) [Citalopram]
27 | < 0.401 | CC[C@H]1OC(=O)[C@H](C)[C@@H](O[C@H]2C[C@@](C)(OC)[C@@H](O)[C@H](C)O2)[C@H](C)[C@@H](O[C@@H]2O[C@H](C)C[C@H]([N+](C)(C)[O-])[C@H]2O)[C@](C)(OC)C[C@@H](C)C(=O)[C@H](C)[C@@H](O)[C@]1(C)O [Clarithromycin-N-oxide]
28 | 65000 ± 15000 | CCC1OC(=O)C(C)C(OC2CC(C)(OC)C(O)C(C)O2)C(C)C(OC2OC(C)CC(N(C)C)C2O)C(C)(OC)CC(C)C(=O)C(C)C(O)C1(C)O (stereo not drawn) [Clarithromycin]
29 | 336000 ± 30000 | CCCC1CC(C(=O)NC(C(C)Cl)C2OC(S(C)=O)C(O)C(O)C2O)N(C)C1 (stereo not drawn) [Clindamycin-sulfoxide]
30 | 749000 ± 65000 | CCCC1CC(C(=O)NC(C(C)Cl)C2OC(SC)C(O)C(O)C2O)N(C)C1 (stereo not drawn) [Clindamycin]
31 | 23 ± 3 | CC(C)(Oc1ccc(Cl)cc1)C(=O)O [Clofibric acid]
32 | 175000 ± 14000 | O=C(O)C(c1ccccc1Cl)N1CCc2sccc2C1 (stereo not drawn) [Clopidogrel carboxylic acid]
33 | 335000 ± 28000 | COC(=O)C(c1ccccc1Cl)N1CCc2sccc2C1 (stereo not drawn) [Clopidogrel]
34 | 436 ± 22 | CC12CCC(=O)C=C1CCC1C2C(=O)CC2(C)C1CCC2(O)C(=O)CO (stereo not drawn) [Cortisone]
35 | 2.9 ± 0.3 | CN1C(=O)CCC1c1cccnc1 (stereo not drawn) [Cotinine]
36 | 55 ± 2.9 | CCOC(=O)c1c(COCCN)nc(C)c(C(=O)OC)c1-c1ccccc1Cl [Dehydroamlodipine]
37 | 2.25e+06 ± 220000 | Oc1ccc(C(c2ccc(O)cc2)c2ccccn2)cc1 [Desacetylbisacodyl]
38 | 668000 ± 57000 | COc1ccc([C@@H]2Sc3ccccc3N(CCN(C)C)C(=O)[C@@H]2O)cc1 [Desacetyldiltiazem]

Row | apparent second-order rate constant | Compound
39 | 134 ± 7.4 | NCC(O)COc1ccc(CC(N)=O)cc1 (stereo not drawn) [Desisopropylatenolol]
40 | 1960 ± 160 | Clc1ccc2c(c1)CCc1cccnc1C2=C1CCNCC1 [Desloratadine]
41 | 1.74 ± 0.19 | CC(=O)Nc1c(I)c(C(=O)NCC(O)CO)c(I)c(C(=O)N(C)CC(O)CO)c1I (stereo not drawn) [Desmethoxyiopromide]
42 | 239000 ± 8000 | CCC1OC(=O)C(C)C(O)C(C)C(OC2OC(C)CC(N(C)C)C2O)C(C)(O)CC(C)CN(C)C(C)C(O)C1(C)O (stereo not drawn) [Desosaminylazithromycin]
43 | 230 ± 30 | CC(=O)Nc1c(I)c(NC(C)=O)c(I)c(C(=O)O)c1I [Diatrizoate]
44 | 815000 ± 110000 | O=C(O)c1ccccc1Nc1c(Cl)cccc1Cl [Diclofenac carboxylic acid]
45 | 830000 ± 71000 | O=C(O)Cc1ccccc1Nc1c(Cl)cccc1Cl [Diclofenac]
46 | 4.5 ± 0.5 | O=c1nc[nH]c2c1ncn2C1CCC(CO)O1 (stereo not drawn) [Didanosine]
47 | 735000 ± 67000 | COc1ccc(C2Sc3ccccc3N(CCN(C)C)C(=O)C2OC(C)=O)cc1 (stereo not drawn) [Diltiazem]
48 | < 0.401 | CC(=O)N(C)N(C(=O)C(=O)N(C)C)c1ccccc1 [Dioxypyramidon (AMDOPH)]
49 | 3.6 ± 0.4 | C[N+](C)(CCOC(c1ccccc1)c1ccccc1)C1OC(C(=O)[O-])C(O)C(O)C1O (stereo not drawn) [Diphenhydramine-N-glucuronide]
50 | 5500 ± 140 | CN(C)CCOC(c1ccccc1)c1ccccc1 [Diphenhydramine]
51 | 79000 ± 70000 | Nc1nc(=O)n(C2CSC(CO)O2)cc1F (stereo not drawn) [Emtricitabine]
52 | 1.57e+06 ± 140000 | CCCCc1ncc(C=C(Cc2cccs2)C(=O)O)n1Cc1ccc(C(=O)O)cc1 [Eprosartan]
53 | 1.8e+07 ± 4e+06 | O=C1CC(c2ccc(O)c(O)c2)Oc2cc(O)cc(O)c21 (stereo not drawn) [Eriodictyol]
54 | 1.27 ± 0.17 | CC(C)OC(=O)C(C)(C)Oc1ccc(C(=O)c2ccc(Cl)cc2)cc1 [Fenofibrate]
55 | 2.8 ± 0.3 | CC(C)(Oc1ccc(C(=O)c2ccc(Cl)cc2)cc1)C(=O)O [Fenofibric acid]
56 | 11.9 ± 1.3 | CC(C)(C(=O)O)c1ccc(C(O)CCC[N+]2([O-])CCC(C(O)(c3ccccc3)c3ccccc3)CC2)cc1 (stereo not drawn) [Fexofenadine-N-oxide]

Row | Compound | apparent second-order rate constant
57 | CC(N)Cc1ccccc1 (stereo not drawn) [Amphetamine] | 34 ± 4
58 | COC(=O)C1=CCC2CCC1N2C (stereo not drawn) [Anhydroecgonine methyl ester] | 44000 ± 10000
59 | CN1C2CCC1C(C(=O)O)C(OC(=O)c1ccccc1)C2 (stereo not drawn) [Benzoylecgonine] | 11.3 ± 1.2
60 | CC(NC(C)(C)C)C(=O)c1cccc(Cl)c1 (stereo not drawn) [Bupropion] | 315 ± 15
61 | COC(=O)C1C(OC(=O)c2ccccc2)CC2CCC1[N+]2(C)[O-] (stereo not drawn) [Cocaine-N-oxide] | < 0.401
62 | COC(=O)C1C(OC(=O)c2ccccc2)CC2CCC1N2C (stereo not drawn) [Cocaine] | 3020 ± 260
63 | COc1ccc2c3c1OC1C(O)C=CC4C(C2)N(C)CCC341 (stereo not drawn) [Codeine] | 1.03e+06 ± 88000
64 | C#CCN(C)C(C)Cc1ccccc1 (stereo not drawn) [Deprenyl] | 930000 ± 81000
65 | COc1ccc2c(c1)C13CCCCC1C(C2)N(C)CC3 (stereo not drawn) [Dextromethorphan] | 5580 ± 96
66 | CN1CCC23CCCCC2C1Cc1ccc(O)cc13 (stereo not drawn) [Dextrorphan] | 1.87e+06 ± 170000
67 | CC(NC(C)(C)C)C(O)c1cccc(Cl)c1 (stereo not drawn) [Dihydrobupropion] | 162 ± 8.9
68 | CNC(C)C(O)c1ccccc1 (stereo not drawn) [Ephedrine] | 1720 ± 150
